Earlier results as cited in patent publication US11925657B2, “Formulations and methods for treating conditions of the eye” (Sight Sciences, Inc., priority 2020, dated 2024).

Experiments:
[1] = lower concentrations, e.g. 0.1% and 0.35%
[2] = antibiotic levels of azithromycin (1%)

Compound | efficacy toward intended rosacea treatment [1] | phase transition temperature of meibum lipids and lipid ordering [2]
ivermectin | lose efficacy | 
CC[C@H]1OC(=O)[C@H](C)[C@@H](O[C@H]2C[C@@](C)(OC)[C@@H](O)[C@H](C)O2)[C@H](C)[C@@H](O[C@@H]2O[C@H](C)C[C@H](N(C)C)[C@H]2O)[C@](C)(O)C[C@@H](C)CN(C)[C@H](C)[C@@H](O)[C@]1(C)O [azithromycin] |  | can improve
